# Measurements reported in US20160058712A1, “3-HYDROXYPTEROSTILBENE AND THERAPEUTIC APPLICATIONS THEREOF” (priority 2014, published 2016).
# Assays:
# COLO 205 cells [1] = assay: MTT cell viability assay, COLO 205; assay type: cell-based; conditions: Homo sapiens, COLO205, MTT, 24 h
# Protocol: (§1) The human colon cancer cell lines COLO 205, HCT116 and HT29 were purchased from the American Type Culture Collection (Rockville, Md.). Cell lines were grown in RPMI1640 supplemented with 10% heat inactivated fetal bovine serum (GIBCO BRL, Grand Island, N.Y.), 100 units/mL of penicillin, 100 μg/mL of streptomycin), 2 mM L-glutamine (GIBCO BRL, Grand Island, N.Y.), and were kept at 37° C. in a humidified 5% CO2 incubator. Pterostilbene and 3-HPT were dissolved in dimethyl sulfoxide (DMSO, as final concentration of 0.05%). Cells were treated with 0.05% DMSO as vehicle control.
# (§2) Cell viability was assayed by 3(4,5-dimethylthiazol-2-yl)-2,5-diphenyltetrazolium bromide (MTT). Briefly. COLO 205, HCT116 and HT29 cells were plated at a density of 2×10^2 cells/mL into 96 well plates. After overnight growth, cells were treated with a series of concentrations of pterostilbene or 3-hydroxypterostilbene for 24 h. The final concentrations of DMSO in the culture medium were <0.05%. At the end of treatment, 0.2% MTT was added and cells were incubated for a further 4 h. Cell viability was determined by scanning with an ELISA reader with a 570 nm filter.
# HCT-116 cells = assay: MTT cell viability assay, HCT116; assay type: cell-based; conditions: Homo sapiens; HCT-116, MTT, 24 h
# Protocol: as §1, §2
# HT-29 cells = assay: MTT cell viability assay, HT29; assay type: cell-based; conditions: Homo sapiens; HT-29, MTT, 24 h
# Protocol: as §1, §2
# [2] = tested on: PARP, DFF-45, pro-caspase 8 and pro-caspase 9 in COLO 205 cells; assay: Western blotting of PARP, DFF-45, pro-caspase 8 and pro-caspase 9 cleavage; assay type: cell-based, human; conditions: COLO 205 cell lysates
# Protocol: Western blotting analysis was performed as follows. The total proteins of COLO 205 cells were extracted via addition of gold lysis buffer (50 mM TrisHCl, pH 7.4; 1 mM NaF; 150 mM NaCl; 1 mM EGTA; 1 mM phenylmethanesulfonyl fluoride; 1% NP40; and 10 μg/mL leupeptin) to the cell pellets on ice for 30 min, followed by centrifugation at 10,000×g for 30 min at 4° C. The total proteins were measured by BioRad Protein Assay (BioRad Laboratories, Munich, Germany). The samples (50 μg of protein) were mixed with 5× sample buffer containing 0.3 M TrisHCl (pH 6.8), 25% 2mercaptoethanol, 12% sodium dodecyl sulfate (SDS), 25 mM EDTA, 20% glycerol, and 0.1% bromophenol blue. The mixtures were boiled at 100° C. for 5 min and were subjected to 10% SDS polyacrylamide minigels at a constant current of 20 mA. Electrophoresis was then carried out on SDSpolyacrylaniide gels. Proteins on the gel were electrotransferred onto an immobile membrane (PVDF; Millipore Corp., Bedford, Mass.) with transfer buffer composed of 25 mM TrisHCl (pH8.9), 192 mM glycine, and 20% methanol. The membranes were blocked with blocking solution containing 20 mM TrisHCl, and then immunoblotted with different primary antibodies and β actin. The blots were rinsed three times with PBST buffer (0.2% Tween 20 in 1× PBS buffer) for 10 min each. Then blots were incubated with 1:5000 dilution of the horseradish peroxidase (HRP) conjugated secondary antibody (Zymed Laboratories, San Francisco, Calif.) and then washed again three times with PBST buffer. The transferred proteins were visualized with an enhanced chemi-luminescence detection kit (ECL Amersham Pharmacia Biotech, Buckinghamshire, UK). The densities of the bands were quantified with a computer densitometer (AlphaImager™ 2200 System Alpha densitometer. Innotech Corporation, San Leandro, Calif.). […] The pro-caspase 8 cleavage by 3-HPT was moderate (FIG. 12).
# COLO 205 cells [3] = assay: Mitochondrial membrane potential by DiOC6 flow cytometry; assay type: cell-based, human; conditions: COLO 205, 50 μM, 15 min; shifted from 224
# Protocol: (§3) For mitochondrial membrane potential and ROS production, COLO 205 cells were treated as described under Example III for 15 min, and then DiOC6 [3,3′-dihexyloxacarbocyanine iodide] (40 nM) or DCFHDA [2′,7′-dichlorodihydrofluorescein diacetate] (20 μM) was added to the medium for a further 30 min at 37° C. After washing with PBS, the fluorescence intensity was determined by FAC Scan cytometry. The DiOC6 fluorescence intensity shifted to the left from 224 to 117 and 75 in pterostilbene and 3-HPT induced apoptotic COLO 205 cells, respectively. […] The role of ROS in the induction of apoptosis is well recognized. […] The imbalance of ROS concentrations could play an important role as an early mediator in 3-HPT induced apoptosis.
# COLO 205 cells [4] = assay: ROS production by DCFHDA flow cytometry; assay type: cell-based, human; conditions: COLO 205, 50 μM, 15 min; from 114
# Protocol: as §3
# PC-3 cell lines = assay: Microscopic morphological changes of PC-3 cells; assay type: cell-based, human; conditions: PC-3, 2.5-20 μM, 100× phase contrast
# Protocol: The morphological changes evident in PC-3 cell lines treated with graded concentrations of 3-HPT (2.5 μM, 5 μM, 10 μM and 20 μM of 3-HPT) as viewed microscopically (100× under inverted stage microscope equipped with phase contrast) indicated cell cytotoxicity starting at a concentration of 5 μM 3-HPT (FIG. 2).
# PC-3 cells [5] = assay: DNA fragmentation by agarose gel electrophoresis; assay type: cell-based, human; conditions: PC-3, 0-20 μM, 48 hr, 2.0% agarose gel
# [6] = tested on: caspase 3, 8 and 9 in PC-3 cells; assay: Fluorometric caspase 3, 8 and 9 activity in PC-3 cells; assay type: cell-based, human; conditions: PC-3, 0-20 μM, 48 hours
# PC-3 cells [7] = assay: Detection of autophagy (GFP-LC3 autophagosomes, Beclin-1/LC3 Western blot); assay type: cell-based, human; conditions: PC-3, 10 μM
# Protocol: Photographs were obtained with a fluorescence microscope (Axioscop, Carl Zeiss, Thomwood, N.Y.) equipped with a mercury 100 W lamp, 490 nm band pass blue excitation filters, a 500 nm dichroic mirror and a 515 nm long pass barrier filter. The autophagy induced by 3-HPT in PC-3 cells was also further confirmed by the Western Blotting analysis of Beclin-1, LC3-I, LC3-II, Actin protein expression in PC-3 cells after 10 μM 3-HPT treatment at different time intervals (FIG. 9). The following conclusions were drawn based on aforesaid experimental studies. • 1. […] 3-Hydroxypterostilbene induced the intrinsic apoptotic pathway and extrinsic apoptotic pathway in PC-3 cells. • 3. […] 3′-Hydroxypterostilbene has significant therapeutic potential for the treatment of human prostate cancer.
# [8] = tested on: multi drug resistant and BCR-ABL-expressing leukemia cells; conditions: Tolomeo et al. 2005; cited from earlier work
structure (smiles),measurement,setting,value
"COc1cc(/C=C/c2ccc(O)c(O)c2)cc(OC)c1 [3-hydroxypterostilbene, 3,4-dihydroxy-3′,5′-dimethoxy-trans-stilbene]",IC50,COLO 205 cells [1],9 ± 0.2 µM
same,IC50,HCT-116 cells,40.2 ± 0.6 µM
same,IC50,HT-29 cells,70.9 ± 1 µM
same,DFF45 protein degradation,[2],induced DFF45 protein degradation
same,pro-caspase 8 cleavage,[2],moderate
same,pro-caspase 9 cleavage,[2],much better than that exemplified by pterostilbene
same,degradation of PARP,[2]; compared with pterostilbene,markedly caused the degradation of 116 kDa PARP into 85 kDa fragments
same,DiOC6 fluorescence intensity (mitochondrial membrane potential),COLO 205 cells [3],75
same,mean DCFHDA fluorescence intensity (ROS),COLO 205 cells [4],38
same,concentration at which cell cytotoxicity starts (morphological changes),PC-3 cell lines,5 μM
same,DNA fragmentation,PC-3 cells [5],indicated apoptotic cells death
same,"caspases activity (caspase 3, 8 and 9)",[6],initiation of caspases activity
same,"autophagy (Beclin-1, LC3 expression, autophagosome formation)",PC-3 cells [7],"induced autophagic cell death by increasing the Beclin-1, LC3 protein expression and autophagosome formation"
same,apoptosis induction in leukemia cells,[8],effective apoptosis-inducing agents
